Reference: patent publication US20160281089A1, “PREVENTION OF VIRAL INFECTIVITY” (priority 2005, published 2016)

What was measured:
HIV virions = assay: Infectivity of ODN-pre-incubated HIV virions in C81-66/45 cells; assay type: cell-based
Experimental: As a next step we investigated the antiviral effect of ODNs by testing the infectivity of treated virions in cell culture studies. We used ODN A, ODN T, as PPT and ODN CO. 2×10^5 C81-66/45 cells were infected with virions pre-incubated with different ODNs at 0.01 MOI for 1, 2 or 4 hours prior to infection. RNA was extracted from infected cells and HIV replication was analysed by real-time PCR 3 days post-infection.
To test the specificity of suppression of viral replication, the effect of ODN A on the infectivity of virions was compared with control ODNs. Virions were pre-treated with the ODNs and HIV replication in infected cells was analysed by real-time PCR, 5 days (FIG. 6A) or 20 days post-infection (FIG. 6B) and by measuring p24 production in the supernatant of the infected cells (FIG. 6C).
(A) HIV virions were incubated with 0.5 μM of ODNs for 1, 2 or 4 hours. C81-66/45 cells were infected with pre-incubated virions, at 0.01 MOI. RNA was extracted from infected cells and HIV replication was analysed by real-time PCR, 3 days post-infection (p.i.).
(B) The same experiment as in (A) was performed with ODN T, ODN CO, asPPT and ODN A pre-treated virions.
(D) C81-66145 cells were infected with virions pre-incubated with 0.5 or 5 μM of ODNs for 4 h, at an MOI of 1. RNA was extracted from infected cells and HIV replication was analysed by real-time PCR, 3 days post-infection.
(E) C81-66/45 cells were infected with virions pre-incubated with ODN A and ODN Sc for 4 h, at an MOI of 0.01. RNA was extracted from infected cells and HIV replication was analysed by real-time PCR, 1 h and 24 h post-infection. (F) The same experiment as in (E) was performed except for using ODN T, ODN B and ODN A, 1 hour post-infection.
C81-66/45 cells were infected with virions pre-incubated with ODN A, ODN T, ODN CO or as PPT for 4 h, at MOI of 0.01. RNA was extracted from infected cells and HIV replication was analysed by real-time PCR, 5 days p.i. (A), and 20 days p.i. (B); by measuring p24 production in the medium of the infected cells (C) or by RT-PCR, 11 days p.i. (D).

RT/RNaseH = RT/RNaseH (Human immunodeficiency virus type 1 group M subtype B, UniProt P04585); assay: RNase H cleavage assay with synthetic 5'-end-labelled RNA and RT/RNaseH; assay type: biochemical, HIV-1; design: the HIV RT/RNase H is a heterodimer of p66 and p51 with and without RNase H; details: for RT/RNaseH cleavage of RNA2 (contains extended PPT): 10 nM 5'-labelled RNA2
Description: We used synthetic 5′-end-labelled RNA2, which contains the extended PPT and sequences of the viral genome close to the PPT. […] For the present study we used low concentrations of the ODNs.
To test whether an ODN-mediated activity would preferentially occur at the PPT, we analysed ODNs targeted to the extended PPT (ODN A) or to a region outside of the PPT (ODN CO and an external antisense oligodeoxynucleotide asEXT) in vitro. We used RNA2, which contains the PPT and the binding sites for ODN A, asEXT and ODN CO. […] Indeed, in the reaction mixture containing both ODN A and asEXT primers, extension products, predominantly synthesized by the RT/RNaseH, started with ODN A and not asEXT (FIG. 2B). […] Thus, the ability of the ODN A to mediate RT/RNaseH-dependent cleavage of the viral RNA is PPT-dependent.
(A) Cleavage assay. 10 nM of in vitro transcribed 5′-labeled RNA was hybridized with 10, 100 and 1000 nM of ODN A and incubated in the presence of RT/RNaseH. The cleavage products were analyzed by denaturing PAGE as described in Materials and methods. (B). Primer extension assay. Synthetic RNA2 was hybridized with ODN A, antisense primer (asEXT) or both primers combined, and the primer extension was performed as described in Materials and Methods. Elongation products were analysed by 8 M urea/10% PAGE. (C) Cleavage assay. RNA/ODN hybrids, obtained using 10 nM of RNA2 and 10 nM of ODN A, asPPT or ODN CO were incubated with RT/RNaseH and cleavage products were analyzed by denaturing PAGE as described in Materials and methods. Cleavage or extension products are presented schematically to the right of each blot. Cleavage sites are indicated by arrows and labelled cleavage products are shown by black lines. Dots on extension products indicate the incorporated labelled dATPs.

SFFV [1] = assay: Early i.v. therapy 2, 6 and 10 hours after SFFV infection of mice; assay type: in vivo; details: i.v. treatment 2, 6 and 10 hours after infection; for establishment of SFFV infection (PCR of blood samples): whole period tested
Experimental: In another experimental setting we assessed the effect of an i.v. therapy early after infection. We infected mice with SFFV and treated them 2, 6, and 10 hours later with ODN M, asPPT or PBS.
c. Mice infected with SFFV (4×10^2 FFU) i.v. received triple-treatments with ODNs at 2, 6 and 10 hours post-infection. Real-time RT-PCR analysis (graph) and RT-PCR (gel analysis) was performed with RNA from plasma beginning at day 5 and at the days indicated.

SFFV virions = assay: Permeabilized cell-free SFFV virions incubated with ODNs, undigested RNA by real-time PCR; assay type: biochemical; details: 5 μM ODN, compared to control ODNs or asPPT
Experimental: In order to further characterize antiviral effects of ODNs, we tested ODN M, asPPT and structural analogs of ODN M in SFFV virions, which contain endogenous RT/RNase H and have an appropriate secondary structure of the RNA. Permeabilized virions were incubated with ODNs, viral RNA was then purified, reverse transcribed and the amount of undigested RNA was quantified by real-time PCR using a set of primers harboring the PPT region of the SFFV genome. […] We observed differences in the antiviral activities between various ODNs. […] Thus, the presence as well as the sequences of both strands of the ODN contributed to the antiviral effect. We noticed previously that the second arm of the ODN is more important intracellularly than in vitro.
a. Cell-free SFFV virions (1×10^3 FFU in 20 μl) were permeabilized and incubated with the indicated ODNs (5 μM). RNA was extracted three days post-treatment and analyzed by quantitative real-time RT-PCR shown as bars (top) and RT-PCR shown as amplifications products on a 1.5% agarose gel (bottom).

SFFV [2] = assay: Survival of SFFV-infected DBA/2 mice treated with ODN M at times 0 and 1 hour; assay type: in vivo; details: ODN M 1 mg at 0 and 1 hour, i.p.
Experimental: We also monitored survival of SFFV-infected mice treated with and without ODN M at times 0 and 1 hour, in this case DBA/2 mice and by i.p. route (FIG. 11b).
Five mice each received 300 μl SFFV (1:100) i.p. supplemented with or without ODN M and 1 h later a second dose of ODN M (1 mg each). Survival was monitored until day 68. The spleen weights at death are indicated as numbers on the graph.

[3] = virions pre-incubated 4 hours with 0.5 μM ODN, 0.01 MOI, 3 days post-infection

Sequence	HIV replication in infected cells (real-time PCR) (HIV virions; ODN-pre-treated virions, MOI of 1, 3 days post-infection)	binding/uptake of pre-treated virions by host cells (HIV virions; pre-incubation 4 hours, HIV RNA in infected cells 1 hour post-infection)	time without sign of virus replication after infection (HIV virions; virions pre-incubated 4 h, MOI of 0.01, real-time PCR, p24, RT-PCR, syncytia)	HIV replication in infected cells (real-time PCR) (HIV virions; [3])	viral RNA in infected cells (HIV virions; virions pre-treated 4 h, 24 hours after infection)	virion uptake by cells, less efficient compared to ODN Sc-treated virions (HIV virions; virions pre-treated 4 hours, HIV RNA in infected cells 1 hour post-infection)	RT/RNaseH cleavage of RNA2 (contains extended PPT) (RT/RNaseH; 10 nM ODN)	cleavage of RNA2 compared to control ODN CO (RT/RNaseH; 10 nM RNA2, 10 nM ODN, FIG. 2C)	cleavage of RNA2 compared to single-stranded asPPT (RT/RNaseH; 10 nM RNA2, 10 nM ODN, FIG. 2C)	RT/RNaseH cleavage of RNA2 (contains extended PPT) (RT/RNaseH; 1 μM ODN)	ODN-mediated cleavage of RNA3 (no PPT sequence) (RT/RNaseH; RNA3 without PPT)	health of infected mice (spleen enlargement in mock-treated) (SFFV [1])	establishment of SFFV infection (PCR of blood samples) (SFFV [1])	amount of intact SFFV RNA in virions (antiviral activity) (SFFV virions)	survival time (SFFV [2])	number of treated mice with prolonged survival (SFFV [2]; DBA/2 mice)	survival of the surviving mice (SFFV [2]; untreated mice died after 20 to 30 days)
TTTTCTTTTGGGGGGTTTGGTTGGGTTTTCCCTTCCAGTCCCCCCTTTTCTTTT (phosphorothioate linkages, further chemistry not given here) [ODN A, 25 mer antisense and 25 mer passenger strand connected by T4, phosphorothioated at each end and in linker, targeted to extended PPT of HIV-1]	only partial suppression of HIV replication	did not significantly interfere with binding	at least 20 days	complete suppression of viral replication	completely degraded	14%	cleaved	more efficient cleavage	slightly stronger	not	not affected	–	–	–	–	–	–
TCTTTTTGGGGGGTTTGTTTGTTTTTTCTTTCATTCCCCCCTTTTTCT (chemistry not given here) [ODN M, 22-mer antisense and 22-mer second strand connected by T4, targeted to extended PPT of SFFV]	–	–	–	–	–	–	–	–	–	–	–	healthy	prevented the establishment of the SFFV-infection	strongest effect	almost doubled	Two out of five	more than 60 days
CCCTTCCAGTCCCCCCTTTTCTTTT (chemistry not given here) [asPPT, single-stranded antisense PPT of HIV, lacks the passenger strand and the linker]	–	–	–	low but detectable levels	–	–	–	–	–	–	–	healthy	prevented the establishment of the SFFV-infection	–	–	–	–
